In patent US20100285957A1, “THIAZOLYLOXYPHENYLAMIDINES OR THIADIAZOLYLOXYPHENYLAMIDINES AND THEIR USE AS FUNGICIDES” (Bayer CropScience AG, priority 2007, published 2010):
Where two headings read alike, the source gives them in different places.

How the values were obtained:
[1] = physchem
[2] = test system: Uromyces appendiculatus; experiment: Uromyces test (beans)/protective; type: in vivo; settings: 240 h, 100 ppm active substance, protective, evaluation 10 days after inoculation, read-out: degree of effectiveness
Description: Uromyces Test (Beans)/Protective [table] To prepare a suitable active substance composition, 1 part by weight of active substance is mixed with the given amounts of solvents and emulsifier and the concentrate is diluted to the desired concentration using water. For the testing of protective effectiveness, young plants are sprayed with the active substance composition in the application rate given. After the spray coating has been dried on, the plants are inoculated with an aqueous suspension of the spores of the bean rust pathogen Uromyces appendiculatus and then remain in an incubation chamber at approximately 20° C. and 100% relative humidity for 1 day. The plants are then placed in a greenhouse at approximately 21° C. and a relative humidity of approximately 90%. Evaluation is carried out 10 days after the inoculation. In this connection, 0% means a degree of effectiveness corresponding to that of the control, while a degree of effectiveness of 100% means that no infestation is observed.

[3] = test system: Blumeria graminis f.sp. hordei; experiment: Blumeria graminis test (barley)/protective; type: in vivo; settings: 168 h, 1000 ppm active substance, protective, evaluation 7 days after inoculation, read-out: degree of effectiveness
Description: Blumeria graminis Test (Barley)/Protective
(§1) To prepare a suitable active substance composition, 1 part by weight of active substance is mixed with the given amounts of solvent and emulsifier and the concentrate is diluted to the desired concentration using water.
For the testing of protective effectiveness, young plants are sprayed with the active substance composition in the application rate given.
After the spray coating has been dried on, the plants are dusted with spores of Blumeria graminis f.sp. hordei.
The plants are placed in a greenhouse at a temperature of approximately 20° C. and a relative humidity of approximately 80%, in order to encourage the development of mildew pustules.
Evaluation is carried out 7 days after the inoculation. In this connection, 0% means a degree of effectiveness corresponding to that of the control, while a degree of effectiveness of 100% means that no infestation is observed.

[4] = test system: Pyrenophora teres; experiment: Pyrenophora teres test (barley)/protective; type: in vivo; settings: 500 ppm active substance, protective, evaluation 7-9 days after inoculation, read-out: degree of effectiveness
Description: Pyrenophora teres Test (Barley)/Protective
as §1
For the testing of protective effectiveness, young barley plants are sprayed with the active substance composition in the application rate given. 1 day after the treatment, the plants are inoculated with an aqueous suspension of the spores of Pyrenophora teres and then remain at 100% relative humidity and 20° C. for 48 h. Subsequently, the plants are placed in a greenhouse at 80% relative humidity and a temperature of 20° C.
Evaluation is carried out 7-9 days after the inoculation. In this connection, 0% means a degree of effectiveness corresponding to that of the control, while a degree of effectiveness of 100% means that no infestation is observed.

[5] = test system: Puccinia recondita var. tritici; experiment: Puccinia test (wheat)/protective; type: in vivo; settings: 240 h, 1000 ppm active substance, protective, evaluation 10 days after inoculation, read-out: degree of effectiveness
Description: Puccinia Test (Wheat)/Protective
as §1
For the testing of protective effectiveness, young plants are sprayed with the active substance composition in the application rate given. After the spray coating has been dried on, the plants are sprayed with a suspension of the conidia of Puccinia recondita var. tritici. The plants remain in an incubation chamber at 20° C. and 100% relative humidity for 48 hours.
The plants are then placed in a greenhouse at a temperature of approximately 20° C. and a relative humidity of 80%, in order to encourage the development of rust pustules.
Evaluation is carried out 10 days after the inoculation. In this connection, 0% means a degree of effectiveness corresponding to that of the control, while a degree of effectiveness of 100% means that no infestation is observed.

[6] = test system: Alternaria solani; experiment: Alternaria test (tomato)/protective; type: in vivo; settings: 168 h, 500 ppm active substance, protective, evaluation 7 days after inoculation, read-out: degree of effectiveness
Description: Alternaria Test (Tomato)/Protective [table] To prepare a suitable active substance composition, 1 part by weight of active substance is mixed with the given amounts of solvent and emulsifier and the concentrate is diluted to the desired concentration using water. For the testing of protective effectiveness, young tomato plants are sprayed with the active substance composition in the application rate given. 1 day after the treatment, the plants are inoculated with a suspension of the spores of Alternaria solani and then stand at 100% relative humidity and 20° C. for 24 h. Subsequently, the plants stand at 96% relative humidity and a temperature of 20° C. Evaluation is carried out 7 days after the inoculation. In this connection, 0% means a degree of effectiveness corresponding to that of the control, while a degree of effectiveness of 100% means that no infestation is observed.

[7] = test system: Phakopsora pachyrhizi; experiment: Phakopsora test (soya)/protective; type: in vivo; settings: 264 h, 100 ppm active substance, protective, evaluation 11 days after inoculation, read-out: degree of effectiveness
Description: Phakopsora Test (Soya)/Protective
as §1
For the testing of protective effectiveness, young plants are sprayed with the active substance composition in the application rate given. After the spray coating has been dried on, the plants are inoculated with an aqueous suspension of the spores of Phakopsora pachyrhizi and then remain in an incubation chamber at approximately 20° C. and 80% relative humidity for 1 day.
Evaluation is carried out 11 days after the inoculation. In this connection, 0% means a degree of effectiveness corresponding to that of the control, while a degree of effectiveness of 100% means that no infestation is observed.

[8] = test system: Sphaerotheca fuliginea; experiment: Sphaerotheca test (cucumber)/protective; type: in vivo; settings: Podosphaera fuliginea, 168 h, 100 ppm active substance, protective, evaluation 7 days after inoculation, read-out: degree of effectiveness
Description: Sphaerotheca Test (Cucumber)/Protective [table] To prepare a suitable active substance composition, 1 part by weight of active substance is mixed with the given amounts of solvents and emulsifier and the concentrate is diluted to the desired concentration using water. For the testing of protective effectiveness, young plants are sprayed with the active substance composition in the application rate given. After the spray coating has been dried on, the plants are inoculated with an aqueous suspension of spores of Sphaerotheca fuliginea. The plants are then placed in a greenhouse at approximately 23° C. and a relative humidity of approximately 70%. Evaluation is carried out 7 days after the inoculation. In this connection, 0% means a degree of effectiveness corresponding to that of the control, while a degree of effectiveness of 100% means that no infestation is observed.

CCN(C)C=Nc1cc(C)c(Oc2nc(C3CC3)ns2)cc1C [Compound 1, N′-{4-[(3-Cyclopropyl-1,2,4-thiadiazol-5-yl)oxy]-2,5-dimethylphenyl}-N-ethyl-N-methylimidoformamide]
logP ([1]; pH 2.3): 1.59 | pest or weed control at 100 ppm [2]: ≥ 70% | pest or weed control at 1000 ppm [3]: ≥ 70% | pest or weed control at 500 ppm [4]: ≥ 70% | pest or weed control at 1000 ppm [5]: ≥ 70% | pest or weed control at 500 ppm [6]: ≥ 70% | pest or weed control at 100 ppm [7]: ≥ 80% | pest or weed control at 100 ppm [8]: ≥ 70%

Cc1cc(Oc2nc(C3CC3)ns2)c(C)cc1N=CN(C)C(C)C [Compound 2, N′-{4-[(3-Cyclopropyl-1,2,4-thiadiazol-5-yl)oxy]-2,5-dimethylphenyl}-N-methyl-N-(1-methyl-ethyl)imidoformamide]
logP ([1]; pH 2.3): 1.91 | pest or weed control at 100 ppm [2]: ≥ 70% | pest or weed control at 1000 ppm [3]: ≥ 70% | pest or weed control at 500 ppm [4]: ≥ 70% | pest or weed control at 1000 ppm [5]: ≥ 70% | pest or weed control at 500 ppm [6]: ≥ 70% | pest or weed control at 100 ppm [7]: ≥ 80% | pest or weed control at 100 ppm [8]: ≥ 70%

CCN(C)C=Nc1cc(C)c(Oc2nc(C3(Cl)CC3)cs2)cc1C [Compound 5, N′-(4-{[4-(1-Chlorocyclopropyl)-1,3-thiazol-2-yl]oxy}-2,5-dimethylphenyl)-N-ethyl-N-methyl-imidoformamide]
logP [1]: 4.8 | pest or weed control at 100 ppm [2]: ≥ 70% | pest or weed control at 1000 ppm [3]: ≥ 70% | pest or weed control at 500 ppm [4]: ≥ 70% | pest or weed control at 1000 ppm [5]: ≥ 70% | pest or weed control at 500 ppm [6]: ≥ 70% | pest or weed control at 100 ppm [7]: ≥ 80% | pest or weed control at 100 ppm [8]: ≥ 70%

CCN(C)C=Nc1cc(C)c(Oc2nc(C3(Cl)CC3)c(Cl)s2)cc1C [Compound 7, N′-(4-{[5-Chloro-4-(1-chlorocyclopropyl)-1,3-thiazol-2-yl]oxy}-2,5-dimethylphenyl)-N-ethyl-N-methylimidoformamide]
logP ([1]; pH 2.3): 1.82 | pest or weed control at 100 ppm [2]: ≥ 70% | pest or weed control at 1000 ppm [3]: ≥ 70% | pest or weed control at 500 ppm [4]: ≥ 70% | pest or weed control at 1000 ppm [5]: ≥ 70% | pest or weed control at 500 ppm [6]: ≥ 70% | pest or weed control at 100 ppm [7]: ≥ 80% | pest or weed control at 100 ppm [8]: ≥ 70%

Cc1cc(Oc2nc(C3(Cl)CC3)c(Cl)s2)c(C)cc1/N=C/N1CCCCC1 [Compound 8, 4-{[5-Chloro-4-(1-chlorocyclopropyl)-1,3-thiazol-2-yl]oxy}-2,5-dimethyl-N-[(1E)-piperidin-1-ylmethylidene]aniline]
logP [1]: 6.02 | logP ([1]; pH 2.3): 2.47 | pest or weed control at 100 ppm [2]: ≥ 70% | pest or weed control at 1000 ppm [3]: ≥ 70% | pest or weed control at 500 ppm [4]: ≥ 70% | pest or weed control at 1000 ppm [5]: ≥ 70% | pest or weed control at 500 ppm [6]: ≥ 70% | pest or weed control at 100 ppm [7]: ≥ 80% | pest or weed control at 100 ppm [8]: ≥ 70%

Cc1cc(Oc2nc(C3(C)CC3)ns2)c(C)cc1N=CN(C)C(C)C [Compound 10, N′-(2,5-Dimethyl-4-{[3-(1-methylcyclopropyl)-1,2,4-thiadiazol-5-yl]oxy}phenyl)-N-methyl-N-(1-methylethyl)imidoformamide]
logP ([1]; pH 2.3): 2.03 | pest or weed control at 100 ppm [2]: ≥ 70% | pest or weed control at 1000 ppm [3]: ≥ 70% | pest or weed control at 500 ppm [4]: ≥ 70% | pest or weed control at 1000 ppm [5]: ≥ 70% | pest or weed control at 100 ppm [7]: ≥ 80% | pest or weed control at 100 ppm [8]: ≥ 70%

CCN(C)C=Nc1cc(C)c(Oc2nc(C3(Cl)CC3)ns2)cc1C [Compound 12, N′-(4-{[3-(1-Chlorocyclopropyl)-1,2,4-thiadiazol-5-yl]oxy}-2,5-dimethylphenyl)-N-ethyl-N-methylimidoformamide]
logP ([1]; pH 2.3): 1.59 | pest or weed control at 100 ppm [2]: ≥ 70% | pest or weed control at 1000 ppm [3]: ≥ 70% | pest or weed control at 500 ppm [4]: ≥ 70% | pest or weed control at 1000 ppm [5]: ≥ 70% | pest or weed control at 100 ppm [7]: ≥ 80% | pest or weed control at 100 ppm [8]: ≥ 70%

Cc1cc(Oc2nc(C3(Cl)CC3)c(Cl)s2)c(C)cc1N=CN(C)C(C)C [Compound 17, N′-(4-{[5-Chloro-4-(1-chlorocyclopropyl)-1,3-thiazol-2-yl]oxy}-2,5-dimethylphenyl)-N-methyl-N-(1-methylethyl)imidoformamide]
logP [1]: 5.86 | logP ([1]; pH 2.3): 2.22 | pest or weed control at 100 ppm [2]: ≥ 70% | pest or weed control at 1000 ppm [3]: ≥ 70% | pest or weed control at 500 ppm [4]: ≥ 70% | pest or weed control at 1000 ppm [5]: ≥ 70% | pest or weed control at 100 ppm [7]: ≥ 80% | pest or weed control at 100 ppm [8]: ≥ 70%

CCN(C)C=Nc1cc(C)c(Oc2nc(C3(CC)C(C)C3(Cl)Cl)ns2)cc1C (stereo not drawn) [Compound 27, N′-(4-{[3-(2,2-Dichloro-1-ethyl-3-methylcyclopropyl)-1,2,4-thiadiazol-5-yl]oxy}-2,5-dimethylphenyl)-N-ethyl-N-methylimidoformamide]
logP ([1]; pH 2.3): 2.21 | pest or weed control at 100 ppm [2]: ≥ 70% | pest or weed control at 500 ppm [4]: ≥ 70% | pest or weed control at 100 ppm [7]: ≥ 80% | pest or weed control at 100 ppm [8]: ≥ 70%

CCN(C)C=Nc1cc(C)c(Oc2nc(C3(F)CC3)cs2)cc1C [Compound 29, N-Ethyl-N′-(4-{[4-(1-fluorocyclopropyl)-1,3-thiazol-2-yl]oxy}-2,5-dimethylphenyl)-N-methylimidoformamide]
logP [1]: 4.38 | logP ([1]; pH 2.3): 1.58 | pest or weed control at 100 ppm [2]: ≥ 70% | pest or weed control at 500 ppm [4]: ≥ 70% | pest or weed control at 500 ppm [6]: ≥ 70% | pest or weed control at 100 ppm [7]: ≥ 80% | pest or weed control at 100 ppm [8]: ≥ 70%

CCN(C)C=Nc1cc(C)c(Oc2nc(C3(F)CC3)c(Cl)s2)cc1C [Compound 30, N′-(4-{[5-Chloro-4-(1-fluorocyclopropyl)-1,3-thiazol-2-yl]oxy}-2,5-dimethylphenyl)-N-ethyl-N-methylimidoformamide]
logP [1]: 5.08 | logP ([1]; pH 2.3): 1.92 | pest or weed control at 100 ppm [2]: ≥ 70% | pest or weed control at 500 ppm [4]: ≥ 70% | pest or weed control at 100 ppm [7]: ≥ 80% | pest or weed control at 100 ppm [8]: ≥ 70%
